The source of these data is US9937185B2, “Imidazopyridine compounds and uses thereof” (NEOMED INSTITUTE, priority 2013, dated 2018).

The target in one assay is T1, hP2X3 (human Purinergic P2X receptors subtype 3) (Homo sapiens, UniProt P56373).
T1 construct: expressed in transfected cells; host or cells: RLE cells (rat liver endothelium, ATCC)
T1 sequence (P56373 1-397): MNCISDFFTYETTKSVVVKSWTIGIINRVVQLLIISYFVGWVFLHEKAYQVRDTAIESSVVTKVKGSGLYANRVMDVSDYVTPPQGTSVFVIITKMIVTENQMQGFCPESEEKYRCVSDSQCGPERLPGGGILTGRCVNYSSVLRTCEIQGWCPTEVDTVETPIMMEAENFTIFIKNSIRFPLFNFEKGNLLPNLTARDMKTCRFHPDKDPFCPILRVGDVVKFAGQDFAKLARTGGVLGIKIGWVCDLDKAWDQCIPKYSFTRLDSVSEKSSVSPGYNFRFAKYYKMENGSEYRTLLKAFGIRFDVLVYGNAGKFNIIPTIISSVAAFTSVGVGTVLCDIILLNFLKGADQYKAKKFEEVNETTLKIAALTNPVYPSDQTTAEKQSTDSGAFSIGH
As to the kind of experiment: Fluo-4 calcium mobilization assay (FDSS7000), antagonists at human P2X3 receptor in RLE/hP2X3 cells. The format is cell-based. The following applies: RLE cells stably expressing hP2X3; 20 min preincubation; 2 uM ATP. As for the experimental part:
The antagonist properties of compounds in the present invention were assayed as inhibitors of intracellular calcium increase induced by activation of hP2X3 (human Purinergic P2X receptors subtype 3, accession number AB016608 for clone A and accession number NM_002559 for clone B), expressed in RLE cells (rat liver […], ATCC. The RLE/hP2X3 cells were grown in William's medium 1× (Gibco, 12551-032), supplemented with 10% Fetal bovine serum (Wisent, 090850), 2 mM L-Glutamine (Wisent, 609-065-EL), and 600 μg/mL Geneticin G-418 (Wisent, 61234) in a humidified incubator (5% CO2 and 37° C.).
Fluo-4 assay on FDSS7000 (Hamamatsu) was performed using cryopreserved RLE cells stably expressing hP2X3 plated in 384 well plates, 24 hr before the experiment at a density appropriate for obtaining the desired final confluence. After processing the cell plates with Fluo-4 and performing a subsequent incubation followed by washing steps, a double addition was carried out. The first addition included the test compounds diluted in HBSS buffer containing 2 mM CaCl2 preincubated for 20 min before a second addition. The second addition included 2 uM of ATP. Calcium mobilization was measured with the FDSS7000 over a time lapse of 3 min, and fluorescent counts were exported for analysis. […] Hill coefficients and % inhibitions can also be determined.
For orientation: Calcium flux is commonly read through the fluorescence of an indicator in the cells.
A word on the IC50: it is the midpoint of a concentration-inhibition curve. Turning to `CCC(=O)N1CCO[C@H](Cc2c(-c3c(F)cc(C(=O)NC)cc3F)nc3cc(C)ccn23)C1` [Example 35], the IC50 came to 16 nM.

For `CNC(=O)c1ccc(-c2nc3cc(C#N)ccn3c2C[C@H]2CN(C(=O)OC)CCO2)c(C)c1` [Example 36], the IC50 is 114 nM.

On to `CNC(=O)c1ccc(-c2nc3cc(C)ccn3c2C[C@H]2CN(C(=O)OC)CCO2)c(C)c1` [Example 21], for which the IC50 is 7 nM.

With `CNC(=O)c1ccc(-c2nc3cc(C)ccn3c2CC2CCN(C(C)=O)CC2)c(C)c1` [Example 46, 4-(3-((1-acetylpiperidin-4-yl)methyl)-7-methylimidazo[1,2-a]pyridin-2-yl)-N,3-dimethylbenzamide], the IC50 came to 66 nM.

For `CNC(=O)c1cc(F)c(-c2nc3cc(C)ccn3c2C[C@H]2CN(C(C)=O)CCO2)c(F)c1` [Example 32], the IC50 was determined as 3 nM.

On to `CNC(=O)c1cc(C)c(-c2nc3cc(C)ccn3c2C[C@H]2CN(C(C)=O)CCO2)cc1F` [Example 18], for which the IC50 was found to be 7 nM.

On to `CCC(=O)N1CCO[C@@H](Cc2c(-c3c(F)cc(C(=O)NC)cc3F)nc3cc(C)ccn23)C1` [Example 16], for which the IC50 is 3 nM.

For the compound `CNC(=O)c1ccc(-c2nc3cc(C)ccn3c2CC2CCN(C(=O)OC)CC2)c(C)c1` [Example 45, methyl 4-((7-methyl-2-(2-methyl-4-(methylcarbamoyl)phenyl)imidazo[1,2-a]pyridin-3-yl)methyl)piperidine-1-carboxylate], the IC50 was 26 nM.

In the case of `CNC(=O)c1ccc(-c2nc3cc(C)ccn3c2C[C@@H]2CN(C(C)=O)CCO2)c(C)c1` [Example 47], the IC50 is 87 nM.

For `CCC(=O)N1CCO[C@@H](Cc2c(-c3cc(F)c(C(=O)NC)cc3C)nc3cc(C)ccn23)C1` [Example 17], the IC50 came to 6 nM.

In the case of `CNC(=O)c1ccc(-c2nc3cc(C)ccn3c2C[C@@H]2CN(C(=O)OC)CCO2)c(C)c1` [Example 22], the IC50 was found to be 45 nM.

For the compound `CNC(=O)c1ccc(-c2nc3cc(C)ccn3c2CC2CCN(C(=O)OC)C2)c(C)c1` (stereo not shown) [Example 41], the half-maximal inhibitory concentration (IC50) was 84 nM.

`CNC(=O)c1cc(C)c(-c2nc3cc(C)ccn3c2C[C@@H]2CN(C(C)=O)CCO2)cc1F` [Example 19]: the IC50 is 158 nM.

Consider `CNC(=O)c1ccc(-c2nc3cc(C)c(F)cn3c2C[C@H]2CN(C(C)=O)CCO2)c(C)c1` [Example 39], for which the IC50 was determined as 10 nM.

`CNC(=O)c1ccc(-c2nc3cc(C)ccn3c2CC2CCCN(C(C)=O)C2)c(C)c1` (stereo not shown) [Example 38]: the IC50 came to 10 nM.

Consider `CCNC(=O)c1ccc(-c2nc3cc(C)ccn3c2C[C@H]2CN(C(C)=O)CCO2)c(C)c1` [Example 33], for which the IC50 amounted to 7 nM.

For `CNC(=O)c1ccc(-c2nc3cc(C)ccn3c2CC2CCN(C(C)=O)C2)c(C)c1` (stereo not shown) [Example 44], the IC50 came out at 103 nM.

As for `CNC(=O)c1cc(F)c(-c2nc3cc(C)ccn3c2C[C@H]2CN(C(C)=O)CCO2)cc1F` [Example 23], the IC50 amounted to 18 nM.

In the case of `CNC(=O)c1ccc(-c2nc3cc(Cl)ccn3c2C[C@@H]2CN(C(C)=O)CCO2)c(C)c1` [Example 27], the IC50 was determined as 111 nM.

As to `CNC(=O)c1ccc(-c2nc3cc(C)ccn3c2CC2CC(C)N(C(C)=O)C2)c(C)c1` (stereo not shown) [Example 42], the IC50 was determined as 59 nM.

Turning to `CNC(=O)c1cc(C)c(-c2nc3cc(C)ccn3c2C[C@H]2CN(C(=O)OC)CCO2)cc1F` [Example 24], the IC50 is 10 nM.

For the compound `CNC(=O)c1cc(F)c(-c2nc3cc(Cl)ccn3c2C[C@H]2CN(C(=O)OC)CCO2)c(F)c1` [Example 28], the IC50 is 6 nM.

With `CNC(=O)c1ccc(-c2nc3cc(Cl)ccn3c2C[C@H]2CN(C(C)=O)CCO2)c(C)c1` [Example 25], the IC50 amounted to 7 nM.

Consider `CNC(=O)c1ccc(-c2nc3cc(C)ccn3c2CC2CCCN(C(=O)OC)C2)c(C)c1` (stereo not shown) [Example 37], for which the IC50 was found to be 11 nM.

As to `CCC(=O)N1CCO[C@@H](Cc2c(-c3cc(F)c(C(=O)NC)cc3C)nc3cc(Cl)ccn23)C1` [Example 26], the IC50 was 11 nM.

As to `CNC(=O)c1cc(F)c(-c2nc3cc(Cl)ccn3c2C[C@H]2CN(C(C)=O)CCO2)c(F)c1` [Example 29], the IC50 came to 5 nM.

`CCC(=O)N1CCO[C@@H](Cc2c(-c3c(F)cc(C(=O)NC)cc3F)nc3cc(Cl)ccn23)C1` [Example 30]: the half-inhibitory concentration (IC50) came to 6 nM.

Regarding `CNC(=O)c1ccc(-c2nc3cc(C)ccn3c2C[C@H]2CN(C(C)=O)CCO2)c(C)c1` [Example 20], the IC50 was 4 nM.

Turning to `CCC(=O)N1CCO[C@@H](Cc2c(-c3ccc(C(=O)NC)cc3C)nc3cc(C)ccn23)C1` [Example 31], the IC50 amounted to 5 nM.

The next assay has as its system rat FCA 96 hr paw model of inflammatory pain, heat hyperalgesia. As to the kind of experiment: Rat FCA 96 hr paw model of inflammatory pain: heat hyperalgesia (Plantar Test). The format is in vivo. Particulars: oral dosing 0.3-1-3-10-20 μmol/kg, 96 h after FCA. As for the experimental part: (§1) One of the compounds of the present invention was evaluated in an in vivo model of inflammatory pain.
(§2) Male Sprague-Dawley rats (Charles River, St-Constant, Qc, CAN) weighing 200-225 g were utilized for the animal experiment studies. The animals were group-housed in polycarbonate, ventilated cages (filter top) in a controlled environment room (12-h light/dark cycle, 20.5-23.5° C., relative humidity: 40-70%) with food (14% Protein Rodent Maintenance Diet, Harlan Teklad, Madisson, Wis., USA) and water ad libidum.
Inflammation was induced by injection of a single 40 μl Freund's complete adjuvant (FCA) intra-plantar injection into the rat's left hindpaw. All experiments were conducted 96h after FCA administration. […]
Heat hyperalgesia (Plantar Test) was assessed using a Paw Thermal Stimulator to apply a controlled heat to the plantar surface of the affected paw. […] The heat source and timer were then turned on simultaneously; when the animal withdrew the hind paw the number of seconds was recorded. […]
Satellite animals were used to monitor the free plasma concentration of example 15 at the doses and time points used in the nociceptive tests. Free plasma EC50 values in behavioral studies were determined from 4-point concentration-response curves using non-linear regression and a sigmoidal variable slope logistic model (Prism 4.03, GraphPad Software Inc., USA).
Turning to `CNC(=O)c1cc(F)c(-c2nc3cc(C)ccn3c2C[C@H]2CN(C(=O)OC)CCO2)c(F)c1` [Example 15, (S)-methyl-2-((2-(2,6-difluoro-4-(methylcarbamoyl)phenyl)-7-methylimidazo[1,2-a]pyridin-3-yl)methyl)morpholine-4-carboxylate], the “reversal of heat hyperalgesia” value is “free plasma concentration dependent reversal”.

The next assay concerns rat FCA 96 hr paw model of inflammatory pain, mechanical hyperalgesia. As to the kind of experiment: Rat FCA 96 hr paw model of inflammatory pain: mechanical hyperalgesia (Ugo Basile analgesy meter). It counts as in vivo. Particulars: oral dosing 0.3-1-3-10-20 μmol/kg, 96 h after FCA. On the procedure: as §1, §2
Inflammation was induced by injection of a single 40 μl Freund's complete adjuvant (FCA) intra-plantar injection into the rat's left hindpaw. All experiments were conducted 96h after FCA administration. Twenty-four hours prior to behavioral testing animals were brought to the laboratory for acclimatization to the new environment. Animals were sacrificed immediately after data acquisition.
Mechanical hyperalgesia was assessed using the Ugo Basile analgesy meter (Ugo Basile, Comerio, Italy) Animals were gently restrained, and a steadily increasing pressure was applied to the dorsal surface of a hind paw via a probe with a dome-shaped tip (diameter of 1 mm). The pressure required to elicit paw withdrawal was determined. An assay cut off was set at 295 g. […] Paw withdrawal thresholds were calculated as the mean of the two values. […]
Turning to `CNC(=O)c1cc(F)c(-c2nc3cc(C)ccn3c2C[C@H]2CN(C(=O)OC)CCO2)c(F)c1` [Example 15, (S)-methyl-2-((2-(2,6-difluoro-4-(methylcarbamoyl)phenyl)-7-methylimidazo[1,2-a]pyridin-3-yl)methyl)morpholine-4-carboxylate], the “reversal of mechanical hyperalgesia” value is on record as “free plasma concentration dependent reversal”.
